Results taken from paper PMC12406198, “Decadentate Acyclic Chelators for Lanthanum Radiopharmaceuticals” (Journal of Medicinal Chemistry, 2025).
Read-outs that look alike come from different tables or passages of the source.

Key:
[1] = Ligand protonation constants by pH-potentiometric titration; type: physicochemical; details: sum of literature protonation constants of related ligands
[2] = literature value; ref footnote f; cited from earlier work
[3] = Stability constants of La^3+ complexes by pH potentiometry; type: physicochemical; details: for pLa: −log[La^3+]free for [L] = 10 μM and [La^3+] = 1 μM at pH 7.4 and 25 °C; for log K LaL ^La: 1:2 L:La^3+ complex; for log K LaL ^La / log K La2L ^OH / log K La2LOH ^OH / log K LaL / pH at which dissociation of the La^3+ complex occurs (speciation diagrams) / log K LaL ^OH: I = 0.15 M NaCl, 25 °C; for pH at which dissociation of the La^3+ complex occurs (speciation diagrams): cLa3+ = cLig = 10^–3 M; for log K LaL ^OH: hydroxo-complex; for amount of La^3+ not complexed at the beginning of the titration: pH 1.7
Procedure: The stability constants of the La^3+ complexes were determined using pH potentiometry (I = 0.15 NaCl). A significant amount of the metal ion is not complexed by the TPADAC^4– ligand at the beginning of the titration at pH 1.7 (∼20%), which allows for stability constant determination using potentiometry. In the case of TPAEN^4– the amount of free La^3+ was small (∼4%), but the stability constants could be determined by fitting the titration data using both 1:1 and 1:2 (TPAEN^4–:La^3+) stoichiometries (Figure S1, Supporting Information). The TPADAC^4– ligand also forms complexes with 1:1 and 1:2 stoichiometries (Figure S2, Supporting Information).
The thermodynamic stability of the complexes at physiologically relevant pH was assessed by calculating pLa values, defined as −log[La^3+]free for [L] = 10 μM and [La^3+] = 1 μM at pH 7.4 and 25 °C following the recommendation of Raymond. This is a result of the high stability constants (log K LaL) that characterize the formation of these complexes, as well as the relatively low basicity of these ligands. Indeed, cyclohexyl derivatives TPADAC^4– and CHXOCTAPA^4– display considerably higher basicity than the ethyl analogues, as indicated by the Σ log K i ^H (i = 1–5) values shown in Table . Similarly, DTPA and DO3A derivatives are characterized by rather high basicities, which results in relatively low pLa values.
(§1) The pH-potentiometric titrations were carried out with a Methrohm 785 DMP titrator using a Metrohm-6.0233.100 combined electrode. The titrated solutions (5.000 mL) were thermostated at 25 °C and stirred and kept under inert gas atmosphere (N2) to avoid the effect of CO2. The pH-calibration of the electrode was performed using KH-phthalate (pH = 4.005) and borax (pH = 9.177) buffers. The concentrations of the ligand stock solutions were determined by pH-potentiometric titration. The protonation constants of the TPAEN^4– (in the pH range of 2.19–12.00 a total of 213 data pairs by titrating a 2.72 mM a ligand solution) and TPADAC^4– (in the pH range of 1.88–11.85 a total of 208 data pairs by titrating a 2.32 mM ligand solution), the stability and protonation constants of the complexes formed with La^3+ and the formation constants of their dinuclear complexes were determined by pH-potentiometric titration. The metal-to-ligand concentration ratios were 1:1 and 2:1. For the 1:1 ratio a total of 240 data pairs were recorded for a H4TPAEN concentration of 2.29 mM in the pH range of 1.77–11.86, while a total of 222 data pairs were collected in the pH range 1.72–11.85 for a 2.72 mM solution of H4TPADAC. For the 2:1 ratio we collected 259 data pairs for a 2.31 mM solution of H4TPAEN in the pH range of 1.73–11.82, and 259 data pairs for a 2.71 mM concentration of H4TPADAC in the pH range of 1.70–11.85. The calculation of [H^+] from the measured pH values was performed with the use of the method proposed by Irving et al. by titrating a 0.01 M HCl solution (I = 0.15 M NaCl) with a standardized NaOH solution. The differences between the measured and calculated pH values were used to obtain the [H^+] concentrations from the pH-data obtained in the titrations. The ionic product of water was determined from the same experiment in the pH range 11.25–11.85. The protonation and stability constants were calculated from the titration data with the PSEQUAD program. The quality of the fits was assessed with the fitting parameter (FP) calculated by PSEQUAD, which is defined as 2 FP=∑i=1n(Vi,calc−Vi,meas)^2/n−k

[4] = cited from earlier work
[5] = Dissociation kinetics: transmetalation of La^3+ complexes with Cu^2+ as scavenger (UV-vis); type: physicochemical; details: for k 3 ^Cu: Cu^2+-assisted pathway; for k 3 ^Cu / k 6 ^Cu / k 2 / K Cu / k 1: 25 °C, 0.15 M NaCl; for k obs for [Cu^2+] = 1 nM / k obs for [Cu^2+] = 1 μM: calculated at pH 7.4; for k 6 ^Cu: dinuclear hydroxo-complex pathway; for k 2: diprotonated pathway; for K Cu: formation of ternary LaLCu complex; for k 1: proton-assisted dissociation of La^3+ complex
Excerpt: The inertness of metal complexes for radiopharmaceutical applications is important to ensure that the radioisotope is not released in vivo off-target. Furthermore, the detailed study of the dissociation mechanism of the complexes provides useful information for ligand design. Thus, we performed a detailed investigation of the dissociation kinetics of the [La(TPAEN)]^− and [La(TPADAC)]^− complexes using Cu^2+ as a scavenger. The reactions were studied spectrophotometrically in the approximate proton concentration range 1.1 × 10^–5–1.6 × 10^–2 M, which corresponds to a pH range of about 1.8–5.0. A large excess of Cu^2+ was used to ensure pseudo-first order conditions.
The latter may proceed through the formation of mono- or diprotonated intermediates, with associated rate constants k 1 and k 2, respectively. […] Thus, we analyzed the kinetic data using the following expression: 1 kobs=k0+k1[H^+]+k2[H^+]^2+k3[Cu^2+]+k6[Cu^2+]Kw/[H^+]/1+KCu[Cu^2+] Here, k 1, k 2, k 3 ^Cu and k 6 ^Cu are the rate constants defined above, k 0 is the rate constant characterizing the spontaneous dissociation mechanism, K w is the ionic product of water (fixed at pK w = 13.72) and K Cu is the equilibrium constant for the formation of the ternary complex (K Cu= [LaLCu]/[Cu^2+][LaL]).
The rates of the metal exchange reactions of the [La(TPAEN)]^− and [La(TPADAC)]^− complexes with Cu(II) were studied by using UV–vis spectrophotometry following the formation of corresponding Cu(II) complexes. The metal exchange reactions of [La(TPAEN)]^− and [La(TPADAC)]^− were examined by conventional spectrophotometric methods tracking the changes in absorption at 305 nm within the pH range of 1.84 to 4.94 (for [La(TPAEN)]^−). The concentration of the complexes was 0.252 mM, while the Cu(II) ion was applied in high excess (12 to 42 times) to ensure pseudo-first-order conditions. The temperature was maintained at 25 °C, and the ionic strength of the solutions was kept constant at 0.15 M NaCl. Dimethylpiperazine (DMP, 50 mM) buffer was used to maintain the pH constant (log K 2 ^H = 4.18) in the pH range of 3.40 to 4.89 (for [La(TPADAC)]^−). At lower pH, the data were supplemented by following the reactions in the range pH of 2.57 to 3.23 using chloroacetic acid (log K 2 ^H = 2.87) at the same concentration. The pseudo-first-order rate constants (k obs) were calculated by fitting the absorbance vs time data to eq : 3 At=(A0−Ae)e^−kobst+Ae where A t , A 0 and A e are the absorbances recorded at time t, at the start of the reaction and upon reaching equilibrium, respectively. The fittings were performed with the computer program Micromath Scientist, version 2.0 (Salt Lake City, UT) by using a standard least-squares procedure.

[6] = Ligand protonation constants by pH-potentiometric titration; type: physicochemical; details: I = 0.15 M NaCl, 25 °C; for Σ log K i ^H (i = 1–5): sum of the constants measured here
Procedure: Ligand protonation constants were determined in 0.15 M NaCl using potentiometric titrations (Figures S1–S2, Supporting Information). The results are compared with those reported previously for OCTAPA^4– and CHXOCTAPA^4– in Table , while the speciation diagrams are shown in Figure S3 (Supporting Information). The first two protonation constants of these ligands, characterized by log K 1 ^H and log K 2 ^H, correspond to the protonation of amine groups, while the remaining protonation constants are ascribed to the carboxylate groups of picolinate and acetate moieties. ,
as §1

SMILES | Σ log K i ^H (i = 1–5) [1] | log K 1 ^H [2] | log K 2 ^H [2] | log K 3 ^H [2] | log K 4 ^H [2] | log K 5 ^H [2] | pLa ([3]; from literature constants) | log K LaL ^La [3] | log K La2L ^OH [3] | log K La2LOH ^OH [3] | log K LaL [3] | pH at which dissociation of the La^3+ complex occurs (speciation diagrams) [3] | log K LaL ^OH [3] | amount of La^3+ not complexed at the beginning of the titration [3] [%] | pLa ([3]; from constants measured here) | k 3 ^Cu [5] | k obs for [Cu^2+] = 1 nM [5] | k obs for [Cu^2+] = 1 μM [5] | k 6 ^Cu [5] | k 2 [5] [M^–2 s^–1] | further results
O=C(O)CN(CC(=O)O)[C@@H]1CCCC[C@H]1N(CC(=O)O)CC(=O)O (relative stereo) [CDTA^4–, 2,2′,2″,2‴-((trans-cyclohexane-1,2-diyl)bis(azanetriyl))tetraacetic acid] | 22.99 | 9.36 | 5.95 | 3.62 | 2.57 | 1.49 |  |  |  |  |  |  |  |  |  |  |  |  |  |  | 
O=C(O)CN1CCN(CC(=O)O)CCN(Cc2cccc(C(=O)O)n2)CCN(CC(=O)O)CC1 [DO3Apic^4–, 2,2′,2″-(10-((6-carboxypyridin-2-yl)methyl)-1,4,7,10-tetraazacyclododecane-1,4,7-triyl)triacetic acid] |  |  |  |  |  |  | 16.6 |  |  |  |  |  |  |  |  |  |  |  |  |  | log K LaL ([4]; 0.1 M KCl, ref footnote f): 21.17; log K LaL ^H ([4]; 0.1 M KCl, ref footnote f): 2.55
O=C(O)CN(CCN(CC(=O)O)CC(=O)O)CC(=O)O [EDTA^4–, ethylenediamine-N,N,N′,N′-tetraacetic acid] | 21.27 | 9.17 | 5.99 | 2.73 | 2.01 | 1.38 |  |  |  |  |  |  |  |  |  |  |  |  |  |  | 
O=C(O)c1cccc(CN2CCOCCOCCN(Cc3cccc(C(=O)O)n3)CCOCCOCC2)n1 [MACROPA^2–, N,N’-bis[(6-carboxy-2-pyridil)methyl]-4,13-diaza-18-crown-6] |  |  |  |  |  |  | 15.6 |  |  |  |  |  |  |  |  |  |  |  |  |  | log K LaL ([4]; 0.1 M KCl, ref footnote d): 14.99; log K LaL ^H ([4]; 0.1 M KCl, ref footnote d): 2.28 ^d; log K LaL ([4]; 0.1 M NaCl, ref footnote e): 13.9
O=C(O)c1cccc(CN(Cc2cccc(C(=O)O)n2)[C@@H]2CCCC[C@H]2N(Cc2cccc(C(=O)O)n2)Cc2cccc(C(=O)O)n2)n1 [TPADAC^4–] |  |  |  |  |  |  |  | 2.85(1) | 6.99(4) | 9.40(4) | 19.55(1) | < 3.0 | 12.06(1) | ~20 | 17.1 | (7.8 ± 2.2)×10^–3 M^–1 s^–1 | 1.123 × 10^–8 s^–1 | 7.381 × 10^–6 s^–1 | (1.5 ± 0.3)×10^7 M^–2 s^–1 | 232.3 ± 36.8 | K Cu [5]: 74.3 ± 30.2 M^–1; k 1 [5]: 0.097 ± 0.036 M^–1 s^–1; log K 1 ^H [6]: 10.79(1); log K 2 ^H [6]: 4.95(1); log K 3 ^H [6]: 4.06(1); log K 4 ^H [6]: 3.46(1); log K 5 ^H [6]: 2.94(1); log K 6 ^H [6]: 0.67(6); Σ log K i ^H (i = 1–5) [6]: 26.20
O=C(O)c1cccc(CN(CCN(Cc2cccc(C(=O)O)n2)Cc2cccc(C(=O)O)n2)Cc2cccc(C(=O)O)n2)n1 [TPAEN^4–, N,N,N′N′-tetrakis[(6-carboxypyridin-2-yl)methyl]-ethylenediamine] |  |  |  |  |  |  |  | 2.31(13) | 6.80(10) | 9.57(10) | 19.16(8) | < 2.5 | 12.62(9) | ~4 | 19.5 | 0.74 ± 0.05 M^–1 s^–1 | 4.34 × 10^–7 s^–1 | 3.45 × 10^–4 s^–1 | (7.2 ± 0.5)×10^8 M^–2 s^–1 | 110.93 ± 10.42 | K Cu [5]: 42.0 ± 4.5 M^–1; k 1 [5]: 2.24 ± 0.13 M^–1 s^–1; log K 1 ^H [6]: 7.87(1); log K 2 ^H [6]: 5.14(1); log K 3 ^H [6]: 3.89(1); log K 4 ^H [6]: 3.28(1); log K 5 ^H [6]: 2.55(1); log K 6 ^H [6]: 0.89(8); Σ log K i ^H (i = 1–5) [6]: 22.73
